Laboratory results as given in US9426996B2, “Use of benzoxaboroles as volatile antimicrobial agents on meats, plants, or plant parts” (AgroFresh Inc., priority 2013, dated 2016).

System: Botrytis cinerea
Test: in vitro inhibition assay for volatile antimicrobial compounds (12-well PDA plates)
Type: cell-based
Conditions: 14 days at 4° C.; for lowest rate with 100% control of Botrytis cinerea: in vitro, volatile
Description: 12-Well (7 milliliter (mL volume per well) microtiter plates are used for the in vitro inhibition assay for volatile antimicrobial compounds. A 3-mL volume of full-strength Potato Dextrose Agar (PDA) is added to each well. After cooling, 1 microliter (μL) of 1×10^6 per mL Botrytis cinerea spore suspension is spot pipetted to the center of the agar. For the first experiment, inoculated plates are allowed to germinate for 5 days at 4° C. For the second experiment, plates are inoculated immediately prior to volatile fungicide treatment. Small Whatman #1 filter disks (Cat. No. 1001-0155) are placed, in duplicate, on the underside of a polyethylene PCR plate sealing film.
The acetone is permitted to evaporate for 5 minutes. The headspace around the Botrytis cinerea inoculum is then sealed inside the well by the film with the adhering disk containing the fungicide. Plates are inverted, placed over the treated disks and sealed to prevent any of the chemical from flaking from the disk and falling onto the inoculated agar. After 14 days of storage at 4° C., cultures are evaluated for percent growth relative to control. Regardless of whether the spores had germinated for 5 days, or if the treatment commenced soon after inoculation of the plates (˜15 minutes); there is 100% control of the fungal pathogen down to 0.005 mg.
A total of 14 antimicrobial compounds are tested using the in vitro inhibition assay described in Example 1. All 14 compounds are applied to the Whatman disks, in duplicate, in a dose dependent manner (0.31 to 0.0006 mg/disk). […] Other compounds, such as Compound C, Compound D, and Compound E conferred 100% control down to 0.023, 0.04, and 0.08 mg/disk, respectively. Results of nine compounds are summarized in Table 2, where the other five compounds show no detected activity in the ranges tested. […]

SMILES	Botrytis inhibition % (in vitro) (0.0006 mg per disk) [%]	Botrytis inhibition % (in vitro) (0.001 mg per disk) [%]	Botrytis inhibition % (in vitro) (0.0024 mg per disk) [%]	Botrytis inhibition % (in vitro) (0.005 mg per disk) [%]	Botrytis inhibition % (in vitro) (0.01 mg per disk) [%]	Botrytis inhibition % (in vitro) (0.023 mg per disk) [%]	Botrytis inhibition % (in vitro) (0.04 mg per disk) [%]	Botrytis inhibition % (in vitro) (0.08 mg per disk) [%]	Botrytis inhibition % (in vitro) (0.16 mg per disk) [%]	Botrytis inhibition % (in vitro) (0.31 mg per disk) [%]	lowest rate with 100% control of Botrytis cinerea [mg/disk]
Fc1ccc2c(c1)COB2c1ccccc1 [Compound C]	0	15	43	63	83	100	100	100	100	100	0.023
Fc1ccc2c(c1)COB2c1ccsc1 [Compound D]	0	0	15	38	70	80	100	100	100	100	0.04
Fc1ccc2c(c1)COB2/C=C/c1ccccc1 [Compound E]	13	13	28	38	69	79	79	100	100	100	0.08
FC(F)(F)c1ccc2c(c1)COB2c1ccccc1 [F]	0	0	0	8	8	10	18	40	53	70	
FC(F)(F)c1ccc2c(c1)COB2c1ccsc1 [G]	0	0	0	0	0	3	13	43	78	100	
OB1OCc2cc(C(F)(F)F)ccc21 [H]	0	0	0	0	3	18	38	55	80	85	
OB1OCCc2ccccc21 [J]	0	0	0	0	0	0	5	8	13	50	
COc1cccc2c1B(O)OC2 [K]	0	0	0	0	0	0	0	5	29	48	
